Where “and” joins values, the source holds several entries; their conditions need not be identical. Identical values can stand only once.
Experiments:
Format in all cases: physicochemical
[1] = Quantum yields by absolute method using an integration sphere
Experimental: (§1) Luminescence data were collected on samples placed into 2.4 mm i.d. quartz capillaries or quartz Suprasil cells. Emission and excitation spectra were measured on a Horiba-Jobin-YvonFluorolog 3 spectrofluorimeter equipped with either a visible photomultiplier tube (PMT) (220-800 nm, R928P; Hamamatsu), a NIR solid-state InGaAs detector cooled to 77 K (800-1600 nm, DSS-IGA020L; Jobin-Yvon), or NIR PMTs (950-1450 nm, H10330-45; 950-1650 nm, H10330-75; Hamamatsu). All spectra were corrected for instrumental functions. Luminescence lifetimes were determined under excitation at 355 nm provided by a Nd:YAG laser (YG 980; Quantel), while the signal was detected in the NIR by the aforementioned PMT (H10330-75). The output signal from the detectors was then fed to a 500 MHz bandpass digital oscilloscope (TDS 754C; Tektronix) and then transferred to a PC for treatment with Origin 8®. Luminescence lifetimes are averages of at least three independent measurements. Quantum yields were determined with a Fluorolog 3 spectrofluorimeter according to an absolute method using an integration sphere (GMP SA). Each sample was measured several times under slightly different experimental conditions. Estimated experimental error for quantum yields determination is 10%.

[2] = Luminescence lifetimes under excitation at 355 nm
Experimental: as §1

[3] = Hydration number q from lifetimes in deuterated and protic solvents
From the text: One parameter that can be obtained from the recording of luminescence lifetimes is the hydration number q. […] This non-zero q value is particularly detrimental for the intensity of the luminescence (and to the corresponding quantum yield values) of NIR-emitting lanthanides since the overtones of high-energy vibrations of the solvent molecules create a route for non-radiative deactivation.

[4] = Ligand triplet state from phosphorescence of Gd3+ analogues; settings: T1 = 22 170 cm^−1; Ga4Ln(shi)4
Experimental: as §1
Phosphorescence can be observed by recording the signal emitted from Ga4Gd(shi)4 in time-resolved mode in the solid state at 77K upon excitation at 350 nm and using a 200 μS delay after the excitation flash (FIG. 9). The 0-0 component of this band represents the energy level of the ligand's triplet state (T1=22,170 cm^−1, 451 nm) which is attributed to the energy level responsible for the main contribution of the transfer to the Ln^3+. The T1 level is sufficiently high in energy to populate the excited states of a wide range of visible and NIR-emitting Ln^3+.
Since the Ga8Ln2(shi)8 dimer compounds were insoluble in all solvents, the solid state photophysical data alone were collected. As with the Ga4Gd(shi)4 compound, the Ga8Gd2(shi)8 complex may be used to examine the ligand-based photophysical properties. […] The solid state ligand phosphorescence was obtained at 77 K using an excitation wavelength of 350 nm and a 100 μs delay (FIG. 11). The profile of the phosphorescence is similar to that of Ga4Gd(shi)4 (FIG. 9), which was expected, since both compounds are formed by the same framework ligand, H3shi. The 0-0 transition was determined to be located at 455 nm, or 21 978 cm^−1. This triplet state energy is slightly lower than that of the Ga4Gd(shi)4 compound (22 170 cm^−1), but still is sufficiently high in energy to sensitize visible (Dy^3+, Tb^3+, Sm^3+) and/or NIR emitting (Dy^3+, Sm^3+, Ho^3+, Yb^3+, Pr^3+, Nd^3+, Er^3+) lanthanides.

[5] = from kCH3OH − kCD3OD, equations of footnotes b, c, e, g

Row | Substance | QLn^L (%) (visible) ([1]; Ga4Ln(shi)4, CD3OD) | QLn^L (%) (visible) ([1]; Ga4Ln(shi)4, CH3OH) | QLn^L (%) (visible) ([1]; Ga4Ln(shi)4, Solid) | τobs (μs) ([2]; Ga4Ln(shi)4, CD3OD) | τobs (μs) ([2]; Ga4Ln(shi)4, CH3OH) | τobs (μs) ([2]; Ga4Ln(shi)4, Solid) | q (hydration number) [3, 5] | q (hydration number) ([3]; qTb = 10.0 × (kCH3OH − kCD3OD − 0.06), footnote d) | ΔE (cm^−1), energy gap between ligand triplet state and Ln3+ emissive state [4] | QLn^L (%) (NIR) ([1]; Ga4Ln(shi)4, CD3OD) | QLn^L (%) (NIR) ([1]; Ga4Ln(shi)4, CH3OH) | QLn^L (%) (NIR) ([1]; Ga4Ln(shi)4, Solid)
1 | [Ga4Tb(shi)4(C6H5CO2)4(C5H5N)(CH3OH)].C5H6N.C5H5N.CH3OH | 28.6(1) % | 23.7(3) % | 34.7% and 34.7(1) % | 1960(10) μs | 1510(10) μs | 1080(10) μs | 1.2^c | 0.9^d | 1 770 cm^−1 |  |  | 
2 | [YbGa4(shi)4(C6H5CO2)4(C5H5N)(CH3OH)].C5H6N.C5H5N.CH3OH [Ga4Yb(shi)4] |  |  |  | 36.6(1) μs | 2.06(4) μs | 55.7(3) μs | 0.7^g |  | 11 870 cm^−1 | 4.29(1) % | 0.26(1) % | 5.88(2) %

Source: patent US10562920B2, “Ln(III) and Ga(III) metallacrown complexes” (The Regents of the University of Michigan, priority 2015, dated 2020)
